Results published in PMC10889811, “Potential Candidate Molecule of Photosystem II Inhibitor Herbicide—Brassicanate A Sulfoxide” (International Journal of Molecular Sciences, 2024).

Target: T1, photosystem II D1 protein (PSBD1; psbA)
T1 construct: gene psbA1; psbA cloned BamHI/HindIII into pFastBac1; expressed in Sf9 insect cells; His-tagged (kept, captured on NTA sensor), Ni column from sonicated pellet supernatant; recombinant plasmid printed as 5238 bp, small for a full-length psbA insert; isolated D1 without other PSII subunits or cofactors; PDB 7ZCL is the docking model only
Assay: biolayer interferometry (Octet R8, NTA sensor)
Type: binding
Settings: PBS, 5% DMSO; analyte 1 mM; His-tagged protein immobilised on NTA sensor; read-out: affinity constant

COC(=O)c1c([S+](C)[O-])[nH]c2ccccc12 (stereo not shown) [brassicanate A sulfoxide]
Kd: 2690 µM
